pIC50: −log10 of the molar value. Structures can show the parent of a compound that is named as a salt.
Key:
[1] = target: T1, Des1 (h) (Homo sapiens, UniProt O15121); assay: Measurement of Dihydroceramide Desaturase-1 (Des-1) activity in intact Jurkat cells labeled with DhCer-C6-NBD (HPLC); format: cell-based; conditions: for pIC50: intact Jurkat cells, given as concentration range, or <X / >X if measured at one concentration X only, read-out: Des1 (h) Jurkat IC50
T1 construct: endogenous in cells; host or cells: parental Jurkat cells
T1 sequence (O15121 1-323): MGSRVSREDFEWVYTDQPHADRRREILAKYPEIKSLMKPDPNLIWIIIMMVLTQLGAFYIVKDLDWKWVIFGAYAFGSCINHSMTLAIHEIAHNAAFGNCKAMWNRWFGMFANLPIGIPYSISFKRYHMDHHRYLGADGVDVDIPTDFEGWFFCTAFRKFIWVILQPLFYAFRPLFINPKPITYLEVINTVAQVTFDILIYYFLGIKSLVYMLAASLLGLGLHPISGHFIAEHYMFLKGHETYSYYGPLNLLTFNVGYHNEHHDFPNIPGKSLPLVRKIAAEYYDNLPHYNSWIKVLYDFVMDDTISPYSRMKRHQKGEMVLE
Procedure: Measurement of Dihydroceramide Desaturase-1 (Des-1) Activity
Compounds were assessed for Des-1 inhibitory activity. Measurement of Des1 activity was performed by HPLC using intact Jurkat cells labeled with DhCer-C6-NBD as described previously (Munoz-Olaya, J. M. et al. ChemMedChem 2008, 3, 946-953) with modifications to enhance sensitivity and reproducibility. These modifications included the use of parental Jurkat cells, 0.5% serum in the culture media, and cell harvesting via centrifugation at 500×g to maximise ceramide extraction. Extracted samples (50 ul) were analysed on a Waters HPLC coupled to a fluorescence detector using a 30 cm C18 reverse-phase column eluted with 1 ml/min 20% H2O and 80% acetonitrile, both with a 0.1% of trifluoroacetic acid. NBD-labelled substrate and product were quantitated with an excitation and emission wavelengths of 465 nm and 530 nm, respectively.

[2] = tested on: Connective Tissue Growth Factor (CTGF) gene expression; assay: Real time quantitative PCR in TGFβ-stimulated human hepatic stellate cells (LX2) to detect CTGF gene expression; format: cell-based; conditions: CTGF mRNA in TGFβ-stimulated LX2 cells vs vehicle control; for inhibition at 5 µM: LX-2, 5 μM; for inhibition at 1 µM: LX-2, 1 μM
Procedure: Real Time Quantitative Polymerase Chain Reaction in Human Hepatic Stellate Cells (LX2) to Detect Connective Tissue Growth Factor (CTGF) Gene Expression The hepatic stellate cell line, LX2 was maintained in DMEM (LifeTechnologies) with 2% heat-inactivated FBS, 100U penicillin (LifeTechnologies), 0.1 mg/mL streptomycin (LifeTechnologies), and 2 mM L-glutamine (LifeTechnologies) at 37° C. with 5% CO2. Cells were seeded into 6-well plates (200,000 cells per well, 2 mLs media) and grown overnight. The cells were changed to 2 mLs 0.5% FBS media for 24 hours prior to treatment. Treatments were added in 2 mLs fresh 0.5% FBS media (vehicle control, long/mL TGFβ alone (R&D Systems), 10 ng/mL TGFβ+inhibitors) and incubated for 24 hours. […] RNA was extracted using Qiagen RNeasy kit (cat #74104), according to manufacturer's instructions. RNA (1 μg) was used to generate cDNA using the Qiagen Quantitect Reverse Transcription Kit (cat #205311), and stored at -20° C. cDNA was diluted (1:25 final) and combined with Sybr Green (Qiagen cat #204143), forward and reverse primers (50 ng each) and run on Real Time PCR Thermocycler machine (RG-6000, Corbett) with the following PCR conditions: Hold 1: 50° C. for 2 min; Hold 2: 95° C. for 15 min; Cycling: 45 cycles of: 95° C. for 30 sec, 58° C. for 21 sec, 72° C. for 15 sec, Hold 3: 72° C. for 30 sec, Melt: 72° C. to 99° C. GAPDH primers (Forward: [NT]; Reverse: [NT] primers (Forward: [NT]; Reverse: [NT] primers available from Origene, cat #HP205671)].

Compound | pIC50 [1] | inhibition at 1 µM ([1]; Jurkat cells, 1 μM) [%] | inhibition at 5 µM [2] [%] | further results
N/C(=N\O)c1ccc(Nc2ncc(-c3ccc(OC(F)(F)F)cn3)o2)cn1 [Compound 99, N′-Hydroxy-5-((5-(5-(trifluoromethoxy)pyridin-2-yl)oxazol-2-yl)amino)picolinimidamide] | < 6.00 | 47 | – | inhibition at 1 µM [2]: 1 to 10%; inhibition at 10 µM ([2]; LX-2, 10 μM): 70 to 80%
N/C(=N\O)c1cnc(Nc2ccn(-c3ccc(C(F)(F)F)cn3)n2)cn1 [Compound 112, N′-Hydroxy-5-((1-(5-(trifluoromethyl)pyridin-2-yl)-1H-pyrazol-3-yl)amino)pyrazine-2-carboximidamide] | > 6.00 | – | – | inhibition at 1 µM [2]: > 90%
N/C(=N\O)c1ccc(Nc2cnn(-c3ccc(C(F)(F)F)cc3)c2)cn1 [Compound 113, N′-Hydroxy-5-((1-(4-(trifluoromethyl)phenyl)-1H-pyrazol-4-yl)amino)picolinimidamide] | > 6.00 | – | > 90 | –
N/C(=N/O)c1ccc(Nc2cn(-c3ccc(C(F)(F)F)cn3)nn2)cn1 [Compound 115, N′-Hydroxy-5-((1-(5-(trifluoromethyl)pyridin-2-yl)-1H-1,2,3-triazol-4-yl)amino)picolinimidamide] | > 6.00 | – | > 90 | –
N/C(=N/O)c1ccc(Nc2ncc(-c3cnc(C(F)(F)F)cn3)o2)cn1 [Example 66, N′-Hydroxy-5-((5-(5-(trifluoromethyl)pyrazin-2-yl)oxazol-2-yl)amino)picolinimidamide] | < 6.00 | 47 | – | –
Oc1ccc(Nc2nnc(-c3ccc(OC(F)(F)F)cc3)o2)nc1 [Example 67, 6-((5-(4-(Trifluoromethoxy)phenyl)-1,3,4-oxadiazol-2-yl)amino)pyridin-3-ol] | > 6.00 | – | – | –
O=c1cc(Nc2ncc(-c3ccc(C(F)(F)F)cn3)o2)ccn1O [Example 68, 1-Hydroxy-4-((5-(5-(trifluoromethyl)pyridin-2-yl)oxazol-2-yl)amino)pyridin-2(1H)-one] | > 6.00 | – | – | –
Cl.N=C(NO)c1ccc(Nc2nnc(-c3ccc(C(F)(F)F)cn3)o2)cn1 [Example 69, N′-Hydroxy-5-((5-(5-(trifluoromethyl)pyridin-2-yl)-1,3,4-oxadiazol-2-yl)amino)picolinimidamide] | < 6.00 | – | – | % inhibition of Des1 at 1 μM ([1]; Jurkat cells, 1 μM): no inhibition
N/C(=N/O)c1ccc(Nc2nnc(-c3ccc(Cl)cn3)o2)cn1 [Example 71, 5-((5-(5-Chloropyridin-2-yl)-1,3,4-oxadiazol-2-yl)amino)-N′-hydroxypicolinimidamide] | < 6.00 | 13 | – | –
Cn1nc(-c2ccc(C(F)(F)F)cn2)cc1Nc1ccc(/C(N)=N\O)nc1 [Example 76, N′-Hydroxy-5-((1-methyl-3-(5-(trifluoromethyl)pyridin-2-yl)-1H-pyrazol-5-yl)amino)picolinimidamide] | < 6.00 | 8 | – | –
Cn1nc(-c2ccc(C(F)(F)F)cc2)cc1Nc1ccc(/C(N)=N\O)nc1 [Example 77, N′-Hydroxy-5-((1-methyl-3-(4-(trifluoromethyl)phenyl)-1H-pyrazol-5-yl)amino)picolinimidamide] | < 6.00 | 47 | – | –
N/C(=N\O)c1ccc(Nc2nc(-c3ccc(Cl)cc3)no2)cn1 [Example 78, 5-((3-(4-chlorophenyl)-1,2,4-oxadiazol-5-yl)amino)-N′-hydroxypicolinimidamide] | > 6.00 | – | – | –
N/C(=N\O)c1cnc(Nc2nc(-c3ccc(Cl)cc3)no2)cn1 [Example 79, 5-((3-(4-chlorophenyl)-1,2,4-oxadiazol-5-yl)amino)-N′-hydroxypyrazine-2-carboximidamide] | > 6.00 | – | – | –
N/C(=N\O)c1ccc(Nc2nc(-c3ccc(Cl)cn3)no2)cn1 [Example 80, 5-((3-(5-Chloropyridin-2-yl)-1,2,4-oxadiazol-5-yl)amino)-N′-hydroxypicolinimidamide] | < 6.00 | 24 | – | –
N/C(=N\O)c1cnc(Nc2nc(-c3ccc(Cl)cn3)no2)cn1 [Example 81, 5-((3-(5-Chloropyridin-2-yl)-1,2,4-oxadiazol-5-yl)amino)-N′-hydroxypyrazine-2-carboximidamide] | < 6.00 | 7 | – | –
N/C(=N\O)c1cnc(Nc2nc(-c3ccc(C(F)(F)F)cc3)no2)cn1 [Example 83, N′-Hydroxy-5-((3-(4-(trifluoromethyl)phenyl)-1,2,4-oxadiazol-5-yl)amino)pyrazine-2-carboximidamide] | > 6.00 | – | – | –
N/C(=N\O)c1cnc(Nc2nc(-c3ccc(C(F)(F)F)cn3)no2)cn1 [Example 85, N′-hydroxy-5-((3-(5-(trifluoromethyl)pyridin-2-yl)-1,2,4-oxadiazol-5-yl)amino)pyrazine-2-carboximidamide] | < 6.00 | 15 | – | –
N/C(=N\O)c1ccc(Nc2nc(-c3ccc(OC(F)(F)F)cn3)no2)cn1 [Example 88, N′-hydroxy-5-((3-(5-(trifluoromethoxy)pyridin-2-yl)-1,2,4-oxadiazol-5-yl)amino)picolinimidamide] | < 6.00 | 29 | – | –

Continued, in another order:

pIC50 [1] | inhibition at 1 µM ([1]; Jurkat cells, 1 μM) [%] | Compound | inhibition at 5 µM [2] [%] | further results
> 6.00 | – | O=C(NCC(O)CO)c1ccc(Nc2ncc(-c3ccc(Cl)cn3)o2)cn1 (racemic) [Compound 116, rac-5-((5-(5-Chloropyridin-2-yl)oxazol-2-yl)amino)-N-(2,3-dihydroxypropyl)picolinamide hydrochloride] | 70 to 80 | –
> 6.00 | – | N/C(=N\O)c1ccc(Nc2ncc(-c3ccc(Cl)cn3)o2)cn1 [Compound 90, 5-((5-(5-Chloropyridin-2-yl)oxazol-2-yl)amino)-N′-hydroxypicolinimidamide] | > 90 | –
> 6.00 | – | N/C(=N/O)c1cnc(Nc2ncc(-c3ccc(Cl)cn3)o2)cn1 [Compound 102, 5-((5-(5-Chloropyridin-2-yl)oxazol-2-yl)amino)-N′-hydroxypyrazine-2-carboximidamide] | 70 to 80 | –
> 6.00 | – | N/C(=N/O)c1ccc(Nc2cnn(-c3ccc(Cl)cn3)c2)cn1 [Compound 103, 5-((1-(5-Chloropyridin-2-yl)-1H-pyrazol-4-yl)amino)-N′-hydroxypicolinimidamide] | 70 to 80 | –
> 6.00 | – | N/C(=N\O)c1cnc(Nc2ncn(-c3ccc(C(F)(F)F)cc3)n2)cn1 [Compound 106, N′-Hydroxy-5-((1-(4-(trifluoromethyl)phenyl)-1H-1,2,4-triazol-3-yl)amino)pyrazine-2-carboximidamide] | – | inhibition at 1 µM [2]: 30 to 40%
> 6.00 | – | N/C(=N/O)c1ccc(Nc2ncn(-c3ccc(C(F)(F)F)cn3)n2)cn1 [Compound 107, N′-Hydroxy-5-((1-(5-(trifluoromethyl)pyridin-2-yl)-1H-1,2,4-triazol-3-yl)amino)picolinimidamide] | > 90 | –
> 6.00 | – | N/C(=N\O)c1cnc(Nc2ncn(-c3ccc(C(F)(F)F)cn3)n2)cn1 [Compound 108, N′-Hydroxy-5-((1-(5-(trifluoromethyl)pyridin-2-yl)-1H-1,2,4-triazol-3-yl)amino)pyrazine-2-carboximidamide] | 40 to 50 | –
> 6.00 | – | Cn1nc(Nc2ccc(/C(N)=N/O)nc2)cc1-c1ccc(C(F)(F)F)cn1 [Compound 109, N′-Hydroxy-5-((1-methyl-5-(5-(trifluoromethyl)pyridin-2-yl)-1H-pyrazol-3-yl)amino)picolinimidamide] | > 90 | –
> 6.00 | – | N/C(=N\O)c1cnc(Nc2ccn(-c3ccc(C(F)(F)F)cc3)n2)cn1 [Compound 111, N′-Hydroxy-5-((1-(4-(trifluoromethyl)phenyl)-1H-pyrazol-3-yl)amino)pyrazine-2-carboximidamide] | > 90 | –

From patent US12448371B2, “Inhibitor compounds” (Cincera Therapeutics Pty Ltd, priority 2019, dated 2025)
